The test system of assay [1] is human adipocytes. The experiment in a line: mRNA expression (Taqman RT-PCR) in differentiated human adipocytes after 7 day treatment. The following applies: for UCP1 and GLUT4 expression, carotenoid alone: 2 μM carotenoid; for UCP1 and GLUT4 expression, carotenoid alone / UCP1 and GLUT4 expression, carotenoid in combination with naringenin extract: seven days; for UCP1 and GLUT4 expression, carotenoid in combination with naringenin extract: 8 μM naringenin extract + 2 μM carotenoid; for gene expression, carotenoid in combination with NR: compared with BC + NR. It counts as cell-based. (In general: In qPCR the cycle at which signal appears reflects the starting amount.)

The conditions of assay [2]: 4 mg/day, six months, obese children; cited from earlier work.
The subject of assay [3] is mice. The following applies: 150 mg/kg/day dietary; cited from earlier work.
For assay [4], the system named is human adipocytes. The experiment in a line: qRT-PCR in human adipocytes (hADSC) treated two days with naringenin and inhibitors. It counts as cell-based. The following applies: 2d treatment. The method, then: Human white adipocytes were treated for 2d with naringenin in the presence of inhibitors of metabolic pathways to determine the mechanism of action for stimulating fat oxidation and thermogenic energy expenditure.
Naringenin increased UCP1 and CPT1β mRNA induction compared to control (p<0.001). PPARα and PPARγ inhibition reduced UCP1 and CPT1β mRNA expression (p<0.001). Each experiment was conducted with three biological replicates and four technical replicates.
The whole orange extract was dissolved in DMSO at 15 mM (based on 28% naringenin content) and added to cells at a dilution of 1:500 to achieve a final concentration of 30 μM. The inhibitors added to the naringenin-treated cells included: peroxisome proliferator-activated receptor alpha (PPARα) antagonist GW6471 and peroxisome proliferator-activated receptor gamma (PPARγ) antagonist GW9662 (Cayman Chemical, Ann Arbor, Mich.) at 10 μM concentration, protein kinase A (PKA) inhibitor H89 (Millipore Sigma, Burlington, Mass.) at 20 μM concentration, and protein kinase G (PKG) inhibitor […] (Biolog Life Science Institute, AXXORA, LLC, Farmingdale, N.Y.) at 50 μM concentration. GW6471 and GW9662 were dissolved in DMSO at 1000×, H89 was dissolved in PBS at 500×, and Rp-8-pCPT-cGMPS was dissolved in PBS at 100× prior to dilution in cell culture medium. Following a two-day treatment, the cells were harvested with Trizol reagent. RNeasy Mini Kit (Qiagen, Germantown, Md.) was used to isolate total RNA following manufacturer's protocol. The expression of UCP1, CPT1β, and GLUT4 was quantified with one-step reverse transcriptase PCR using the reverse PCR primer to prime cDNA synthesis as previously described.^6

The subject of assay [5] is human adipocytes. Nature of the assay: UCP1 mRNA in human adipocytes, naringenin combined with other botanical compounds. It counts as cell-based. The settings on record: 5 μM naringenin in combination. As to the method: Human adipocytes were treated with 5 μM naringenin or with naringenin in combination with other botanical compounds to evaluate synergy in inducing UCP1 mRNA expression. A range of other botanical compounds such as […]

The test system of assay [6] is mice. The settings on record: 100 mg/kg injected daily; cited from earlier work.
Assay [7] has as its system human adipocytes. The experiment in a line: Acute agonist-stimulated lipolysis (glycerol release) in untreated and NRBC-treated adipocytes. It counts as cell-based. The settings on record: 4.5 hour agonist exposure. As to the method: Acute agonist-stimulated glycerol release in untreated and NRBC-treated adipocytes. After 7d treatment with vehicle or NRBC, cells were exposed to receptor agonists dissolved in KRB with 1% BSA for 4.5 hours. Supernatants were removed for measurement of glycerol.
On the day of the acute lipolysis assay, cell cultures were rinsed with KRB to remove serum and exposed to the individual receptor agonists in KRB. Lipolysis was measured as glycerol released into the cell supernatant over 4.5 hour of agonist exposure. Non-hydrolyzable cAMP was also evaluated in each experiment as a positive control to measure the maximum capacity for PKA-stimulated lipolysis.

As for `CC(C)=CCC/C(C)=C/C=C/C(C)=C/C=C/C(C)=C/C=C/C=C(C)/C=C/C=C(C)/C=C/C=C(\C)CCC=C(C)C` [lycopene, Lycopene], in assay [1], the “UCP1 and GLUT4 expression, carotenoid alone” value is listed as “no effect”; the “UCP1 and GLUT4 expression, carotenoid in combination with naringenin extract” value is recorded as “act synergistically”; the “gene expression, carotenoid in combination with NR” value was “synergistic effect”.

Turning to `CC1=C(/C=C/C(C)=C/C=C/C(C)=C/C=C/C=C(C)/C=C/C=C(C)/C=C/C2=C(C)CCCC2(C)C)C(C)(C)CCC1` [beta carotene, β-Carotene], in assay [2], the “BMI z-score, subcutaneous and visceral adipose tissue, waist circumference” value is reported as “reduction in BMI z-score, subcutaneous adipose tissue, visceral adipose tissue, waist circumference”; the insulin sensitivity result was “improved insulin sensitivity”. For the same compound, the “UCP1 and GLUT4 expression, carotenoid alone” value in assay [1] was “no effect”. The “RNA expression of uncoupling protein-1, adipose tissue glyceride lipase and adiponectin” value in assay [1] (beta carotene at 1 micromolar) was “increase RNA expression”. The “adiposity, food intake, bodyweight” value in assay [3] is recorded as “reduced adiposity without altering food intake or bodyweight”.

As to `Nc1nc2c(nc(Sc3ccc(Cl)cc3)n2[C@@H]2O[C@@H]3CO[P@@](=O)(S)O[C@H]3[C@H]2O)c(=O)[nH]1` [Biolog C013, reference compound], in assay [4], the “Induction of UCP1 and CPT-1b by naringenin in the presence of the inhibitor” value (from here on “Induction of UCP1 and CPT-1b … of the inhibitor”) is “unaffected”.

With `CCCCCCCC/C=C\CCCCCCCC(=O)NCCO` [OEA, oleoylethanolamide], the “synergy with naringenin in increasing UCP1 mRNA levels” value in assay [5] is recorded as “did not synergize”.

Regarding `O=C(Nc1ccccc1)c1cc([N+](=O)[O-])ccc1Cl` [GW9661, reference compound], the “Induction of UCP1 and CPT-1b … of the inhibitor” value in assay [4] was “abolished”.

`CCC(=O)NC[C@H](Cc1ccc(OCCc2nc(-c3ccccc3)oc2C)cc1)N/C(C)=C\C(=O)c1ccc(C(F)(F)F)cc1` [GW6471, reference compound]: in assay [4], the “Induction of UCP1 and CPT-1b … of the inhibitor” value is recorded as “abolished”.

Regarding `O=S(=O)(NCCNC/C=C/c1ccc(Br)cc1)c1cccc2cnccc12` [H89, reference compound], the “Induction of UCP1 and CPT-1b … of the inhibitor” value in assay [4] was “partially reduced”.

Take `CC1=C(/C=C/C(C)=C/C=C/C(C)=C/C(=O)O)C(C)(C)CCC1` [atRA, All-trans retinoic acid]: the “body weight and adiposity” value in assay [6] was “reduction in body weight and adiposity”.

As for `CC12CCC(CC1)C(C)(C)O2` [Ecalyptol], in assay [5], the “synergy with naringenin in increasing UCP1 mRNA levels” value was “did not synergize”.

`CC1=C[C@H](O)CC(C)(C)[C@H]1/C=C/C(C)=C/C=C/C(C)=C/C=C/C=C(C)/C=C/C=C(C)/C=C/C1=C(C)C[C@@H](O)CC1(C)C` [lutein, Lutein]: in assay [1], the “UCP1 and GLUT4 expression, carotenoid alone” value is “no effect”; the “UCP1 and GLUT4 expression, carotenoid in combination with naringenin extract” value is “act synergistically”; the “gene expression, carotenoid in combination with NR” value is on record as “synergistic effect”.

Take `CC(CCc1ccc(O)cc1)NCCc1ccc(O)c(O)c1` (stereo not shown) [dobutamine]: in assay [7], the “lipolysis stimulated by the agonist (glycerol release)” value (shortened to “lipolysis stimulated by the agonist”) is listed as “comparable to isoproterenol”.

Consider `CC[C@H](C)[C@@H]1NC(=O)[C@H](CCCNC(=N)N)NC(=O)[C@H](CC(=O)O)NC(=O)[C@H](CCSC)NC(=O)[C@H](CCCNC(=N)N)NC(=O)CNC(=O)CNC(=O)[C@H](Cc2ccccc2)NC(=O)[C@@H](NC(=O)[C@H](CO)NC(=O)[C@H](CO)NC(=O)[C@H](CCCNC(=N)N)NC(=O)[C@H](CCCNC(=N)N)NC(=O)[C@H](CC(C)C)NC(=O)[C@@H](N)CO)CSSC[C@@H](C(=O)N[C@@H](CC(N)=O)C(=O)N[C@@H](CO)C(=O)N[C@@H](Cc2ccccc2)C(=O)N[C@@H](CCCNC(=N)N)C(=O)N[C@@H](Cc2ccc(O)cc2)C(=O)O)NC(=O)CNC(=O)[C@H](CC(C)C)NC(=O)CNC(=O)[C@H](CO)NC(=O)[C@H](CCC(N)=O)NC(=O)[C@H](C)NC(=O)CNC1=O` [ANP], for which the “lipolysis stimulated by the agonist” value in assay [7] is listed as “highest levels of lipolysis”.

Take “PTH: parathyroid hormone (1-34) (SVSEIQLMHNLGKHLNSMERVEWLRKKLQDVHNF; Parathyroid hormone; UniProt P01270 32-65, looked up, fragment)”: the “lipolysis stimulated by the agonist” value in assay [7] is on record as “highest levels of lipolysis”.

As to `Nc1ncnc2c1ncn2[C@@H]1O[C@@H]2COP(=O)(O)O[C@H]2[C@H]1O` [Cyclic AMP], the “lipolysis stimulated by the agonist” value in assay [7] is listed as “greater lipolysis activity than any individual receptor ligand”.

The values above are taken from patent US20210260022A1, “SYNERGY FOR INCREASING ENERGY EXPENDITURE AND INSULIN SENSITIVITY” (The Board of Supervisors of Louisiana State University and …, priority 2018, published 2021).
